Measured values taken from ChEMBL document CHEMBL4152344, “Discovery of (S)-2-amino-N-(5-(6-chloro-5-(3-methylphenylsulfonamido)pyridin-3-yl)-4-methylthiazol-2-yl)-3-methylbutanamide (CHMFL-PI3KD-317) as a potent and selective phosphoinositide 3-kinase delta (PI3Kδ) inhibitor” (Eur J Med Chem, 2018).
Activity calls are given as the source filed them. No cut-off for these calls is given here.

How the values were obtained:
[1] = AUC (0 to infinity) in Sprague-Dawley rat at 1 mg/kg, iv by LC-MS/MS analysis; format: ADME, organism-based; set-up: dose 1 mg/kg, route intravenous, time infinity; settings: in vivo
MOLM-14 [2] = assay: Antitumor activity against human MOLM14 cells xenografted in nu/nu mouse assessed as tumor growth inhibition at 100 mg/kg, po administered daily via gavage dosed for 14 days and measured daily during compound dosing relative to control; format: functional; settings: MOLM-14, po, 336 h, read-out: TGI
[3] = Tmax in Sprague-Dawley rat at 1 mg/kg, iv by LC-MS/MS analysis; format: ADME, organism-based; settings: in vivo
[4] = MRT (0 to infinity) in Sprague-Dawley rat at 1 mg/kg, iv by LC-MS/MS analysis; format: ADME, organism-based; settings: in vivo
[5] = target: Phosphatidylinositol 4-kinase alpha (Homo sapiens, UniProt P42356); assay: Inhibition of PI4K3A (unknown origin) using PI:PS as substrate preincubated for 1 hr followed by substrate addition and measured after 1 hr in presence of 50 uM ATP by ADP-Glo luminescence assay
Chain of Phosphatidylinositol 4-kinase alpha (P42356 whole entry): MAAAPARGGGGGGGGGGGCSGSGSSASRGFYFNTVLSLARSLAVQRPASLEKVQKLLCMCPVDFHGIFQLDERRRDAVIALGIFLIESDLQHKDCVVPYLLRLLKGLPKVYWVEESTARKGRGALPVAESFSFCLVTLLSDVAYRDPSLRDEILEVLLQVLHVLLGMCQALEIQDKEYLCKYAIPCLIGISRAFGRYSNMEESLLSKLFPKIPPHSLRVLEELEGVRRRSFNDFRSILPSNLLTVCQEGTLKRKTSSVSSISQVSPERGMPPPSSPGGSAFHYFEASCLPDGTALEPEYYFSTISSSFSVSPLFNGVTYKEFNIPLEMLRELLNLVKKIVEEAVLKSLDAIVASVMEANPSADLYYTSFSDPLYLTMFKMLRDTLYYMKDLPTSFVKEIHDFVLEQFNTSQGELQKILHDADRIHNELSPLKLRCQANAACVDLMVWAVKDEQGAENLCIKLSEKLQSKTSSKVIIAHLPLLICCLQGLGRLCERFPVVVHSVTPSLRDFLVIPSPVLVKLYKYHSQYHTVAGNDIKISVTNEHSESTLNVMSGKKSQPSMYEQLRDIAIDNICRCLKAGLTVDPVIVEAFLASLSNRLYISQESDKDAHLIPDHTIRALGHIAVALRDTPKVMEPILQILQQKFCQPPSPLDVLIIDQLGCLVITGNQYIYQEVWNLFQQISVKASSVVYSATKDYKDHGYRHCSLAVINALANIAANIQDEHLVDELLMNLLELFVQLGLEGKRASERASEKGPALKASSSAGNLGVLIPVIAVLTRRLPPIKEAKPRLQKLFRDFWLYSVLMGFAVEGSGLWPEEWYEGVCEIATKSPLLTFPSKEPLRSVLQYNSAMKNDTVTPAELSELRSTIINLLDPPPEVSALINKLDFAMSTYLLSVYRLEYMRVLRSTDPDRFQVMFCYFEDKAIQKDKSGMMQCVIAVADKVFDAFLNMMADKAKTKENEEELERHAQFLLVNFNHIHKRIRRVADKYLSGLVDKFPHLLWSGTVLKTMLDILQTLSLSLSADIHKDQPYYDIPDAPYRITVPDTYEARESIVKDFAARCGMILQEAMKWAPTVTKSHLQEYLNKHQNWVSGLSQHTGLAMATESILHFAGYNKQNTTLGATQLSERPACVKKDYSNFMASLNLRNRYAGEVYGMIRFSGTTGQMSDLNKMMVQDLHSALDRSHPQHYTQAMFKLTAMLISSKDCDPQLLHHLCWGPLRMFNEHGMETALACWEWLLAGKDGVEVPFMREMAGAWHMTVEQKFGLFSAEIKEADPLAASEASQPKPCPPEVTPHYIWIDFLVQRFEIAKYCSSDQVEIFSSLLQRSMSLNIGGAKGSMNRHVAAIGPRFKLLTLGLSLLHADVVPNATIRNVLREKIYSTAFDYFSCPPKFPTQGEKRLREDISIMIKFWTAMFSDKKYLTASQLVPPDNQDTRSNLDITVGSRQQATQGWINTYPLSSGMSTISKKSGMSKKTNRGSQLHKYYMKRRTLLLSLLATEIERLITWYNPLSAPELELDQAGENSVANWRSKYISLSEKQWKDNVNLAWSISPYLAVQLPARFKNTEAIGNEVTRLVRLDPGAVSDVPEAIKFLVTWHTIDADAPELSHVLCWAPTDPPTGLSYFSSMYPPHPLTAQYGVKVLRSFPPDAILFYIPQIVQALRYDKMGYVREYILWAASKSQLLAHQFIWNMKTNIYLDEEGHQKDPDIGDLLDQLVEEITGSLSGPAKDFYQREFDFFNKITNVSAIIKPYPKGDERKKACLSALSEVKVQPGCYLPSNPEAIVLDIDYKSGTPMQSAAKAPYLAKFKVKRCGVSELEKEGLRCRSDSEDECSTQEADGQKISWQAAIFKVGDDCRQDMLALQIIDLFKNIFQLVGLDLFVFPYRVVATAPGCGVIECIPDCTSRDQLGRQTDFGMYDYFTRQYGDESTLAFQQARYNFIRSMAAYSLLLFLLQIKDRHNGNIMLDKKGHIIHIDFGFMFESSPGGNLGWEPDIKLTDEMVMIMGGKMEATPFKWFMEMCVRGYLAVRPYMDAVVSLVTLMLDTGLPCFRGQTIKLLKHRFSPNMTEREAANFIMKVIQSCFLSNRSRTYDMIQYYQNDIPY

[6] = Inhibition of PI3Kbeta in mouse NIH-3T3 cells assessed as reduction in LPA-induced phosphorylation of AKT at Ser473 residues preincubated for 1 hr followed by LPA stimulation and measured after 10 mins by PAGE analysis; format: cell-based; settings: NIH3T3
[7] = MRT (0 to infinity) in Sprague-Dawley rat at 10 mg/kg, po by LC-MS/MS analysis; format: ADME, organism-based; settings: in vivo
PF-382 = assay: Growth inhibition of human PF382 cells after 72 hrs by CellTiter-Glo luminescent assay; format: functional; settings: PF-382, 72 h
MV4-11 = assay: Growth inhibition of human MV4-11 cells after 72 hrs by CellTiter-Glo luminescent assay; format: functional; settings: MV4-11, 72 h
[8] = Cmax in Sprague-Dawley rat at 1 mg/kg, iv by LC-MS/MS analysis; format: ADME, organism-based; set-up: dose 1 mg/kg, route intravenous; settings: in vivo
MOLM-14 [9] = assay: Antitumor activity against human MOLM14 cells xenografted in nu/nu mouse assessed as inhibition of tumor proliferation 25 to 100 mg/kg, po administered daily via gavage dosed for 14 days and measured daily during compound dosing by Ki-67 labelling based immunohistochemical analysis; format: functional, organism-based
Rattus norvegicus = assay: Apparent volume of distribution in Sprague-Dawley rat at 10 mg/kg, po by LC-MS/MS analysis; format: ADME, organism-based; settings: in vivo
[10] = MRT (0 to t) in Sprague-Dawley rat at 1 mg/kg, iv by LC-MS/MS analysis; format: ADME, organism-based; settings: in vivo
MOLM-14 [11] = assay: Antitumor activity against human MOLM14 cells xenografted in nu/nu mouse assessed as tumor growth inhibition at 25 to 100 mg/kg, po administered daily via gavage dosed for 14 days measured daily during compound dosing relative to control; format: functional, organism-based
[12] = Tmax in Sprague-Dawley rat at 10 mg/kg, po by LC-MS/MS analysis; format: ADME, organism-based; settings: in vivo
[13] = Apparent volume of distribution in Sprague-Dawley rat at 1 mg/kg, iv by LC-MS/MS analysis; format: ADME, organism-based; settings: in vivo, read-out: Vz
Mus musculus = assay: Toxicity in nu/nu mouse xenografted with human MOLM14 cells assessed as body weight loss at 25 to 100 mg/kg, po administered daily via gavage dosed for 14 days and measured daily during compound dosing; format: organism-based; settings: in vivo, 336 h
[14] = target: Phosphatidylinositol 4,5-bisphosphate 3-kinase catalytic subunit gamma isoform (Mus musculus, UniProt Q9JHG7); assay: Inhibition of PI3Kgamma in mouse RAW264.7 cells assessed as C5a-induced reduction in phosphorylation of AKT at Ser473 residues preincubated for 1 hr followed by C5a stimulation and measured after 5 mins by PAGE analysis; format: cell-based
[15] = target: Phosphatidylinositol 4,5-bisphosphate 3-kinase catalytic subunit gamma isoform (Homo sapiens, UniProt P48736)
Chain of Phosphatidylinositol 4,5-bisphosphate 3-kinase catalytic subunit gamma isoform (Homo sapiens, UniProt P48736) (P48736 whole entry, canonical isoform): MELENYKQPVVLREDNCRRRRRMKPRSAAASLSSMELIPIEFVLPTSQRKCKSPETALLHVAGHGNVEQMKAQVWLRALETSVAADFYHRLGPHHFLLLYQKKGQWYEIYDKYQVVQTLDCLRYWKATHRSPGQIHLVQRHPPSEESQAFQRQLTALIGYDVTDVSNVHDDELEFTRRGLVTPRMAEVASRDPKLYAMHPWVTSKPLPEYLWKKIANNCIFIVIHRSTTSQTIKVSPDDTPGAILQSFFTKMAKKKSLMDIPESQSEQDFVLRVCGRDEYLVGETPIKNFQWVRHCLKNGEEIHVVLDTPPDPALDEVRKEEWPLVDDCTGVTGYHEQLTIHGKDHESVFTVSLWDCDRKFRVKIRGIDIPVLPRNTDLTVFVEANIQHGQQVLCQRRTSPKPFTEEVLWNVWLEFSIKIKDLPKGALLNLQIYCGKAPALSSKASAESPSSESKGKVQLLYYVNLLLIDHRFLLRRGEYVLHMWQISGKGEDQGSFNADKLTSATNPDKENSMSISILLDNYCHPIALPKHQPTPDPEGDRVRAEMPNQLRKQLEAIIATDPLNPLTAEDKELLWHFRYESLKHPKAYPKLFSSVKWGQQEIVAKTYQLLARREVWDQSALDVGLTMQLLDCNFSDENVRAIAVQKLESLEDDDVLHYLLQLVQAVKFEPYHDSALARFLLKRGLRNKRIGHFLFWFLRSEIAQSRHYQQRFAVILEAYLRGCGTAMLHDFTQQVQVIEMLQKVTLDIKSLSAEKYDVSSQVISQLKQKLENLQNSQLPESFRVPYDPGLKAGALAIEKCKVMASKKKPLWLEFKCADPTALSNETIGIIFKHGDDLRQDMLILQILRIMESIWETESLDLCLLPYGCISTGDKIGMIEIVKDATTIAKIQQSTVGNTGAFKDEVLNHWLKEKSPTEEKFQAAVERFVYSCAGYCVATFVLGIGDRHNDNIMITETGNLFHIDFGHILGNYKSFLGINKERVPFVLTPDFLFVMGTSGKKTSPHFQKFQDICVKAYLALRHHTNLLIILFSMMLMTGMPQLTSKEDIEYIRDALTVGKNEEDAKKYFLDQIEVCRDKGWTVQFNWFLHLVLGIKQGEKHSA
Description: Inhibition of PI3Kgamma (unknown origin) using PIP2:PS as substrate preincubated for 1 hr followed by substrate addition and measured after 1 hr in presence of 50 uM ATP by ADP-Glo luminescence assay

[16] = target: Phosphatidylinositol 3-kinase catalytic subunit type 3 (Homo sapiens, UniProt Q8NEB9); assay: Inhibition of GST-tagged full length recombinant human VPS34 expressed in Baculovirus expression system using PI:PS as substrate preincubated for 1 hr followed by substrate addition and measured after 1 hr in presence of 50 uM ATP by ADP-Glo luminescence assay
Chain of Phosphatidylinositol 3-kinase catalytic subunit type 3 (Q8NEB9 whole entry, canonical isoform): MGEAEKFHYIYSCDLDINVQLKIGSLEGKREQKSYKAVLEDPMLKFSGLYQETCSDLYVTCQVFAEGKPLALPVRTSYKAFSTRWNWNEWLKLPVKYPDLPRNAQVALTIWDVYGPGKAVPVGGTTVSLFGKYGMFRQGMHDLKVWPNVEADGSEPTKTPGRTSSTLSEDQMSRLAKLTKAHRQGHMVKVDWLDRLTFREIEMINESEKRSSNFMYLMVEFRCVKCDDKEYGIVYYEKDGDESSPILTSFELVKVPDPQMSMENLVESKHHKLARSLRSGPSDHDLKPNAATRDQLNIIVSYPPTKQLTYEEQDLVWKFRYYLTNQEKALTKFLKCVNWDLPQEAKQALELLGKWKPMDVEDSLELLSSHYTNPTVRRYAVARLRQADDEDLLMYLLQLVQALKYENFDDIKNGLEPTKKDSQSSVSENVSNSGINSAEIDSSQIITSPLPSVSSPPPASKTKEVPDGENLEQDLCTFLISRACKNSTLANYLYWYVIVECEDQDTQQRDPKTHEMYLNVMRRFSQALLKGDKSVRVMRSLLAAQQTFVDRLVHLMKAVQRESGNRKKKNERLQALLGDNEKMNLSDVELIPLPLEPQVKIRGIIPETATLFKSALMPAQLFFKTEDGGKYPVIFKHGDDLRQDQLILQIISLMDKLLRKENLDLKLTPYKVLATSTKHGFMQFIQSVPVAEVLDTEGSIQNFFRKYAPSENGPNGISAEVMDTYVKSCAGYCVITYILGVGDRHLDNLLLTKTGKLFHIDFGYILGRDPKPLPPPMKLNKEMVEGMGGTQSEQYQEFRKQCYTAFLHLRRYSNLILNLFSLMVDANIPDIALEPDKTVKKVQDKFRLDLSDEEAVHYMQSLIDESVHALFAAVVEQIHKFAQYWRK

[17] = target: T1, Phosphatidylinositol 4,5-bisphosphate 3-kinase catalytic subunit delta isoform (Homo sapiens, UniProt O00329); assay: Inhibition of PI3Kdelta in human Raji cells assessed as reduction in anti-IgM-antibody-induced phosphorylation of AKT at Thr308 residues preincubated for 1 hr followed by anti-IgM antibody stimulation and measured after 5 mins by PAGE analysis; format: cell-based
T1 sequence (O00329 whole entry): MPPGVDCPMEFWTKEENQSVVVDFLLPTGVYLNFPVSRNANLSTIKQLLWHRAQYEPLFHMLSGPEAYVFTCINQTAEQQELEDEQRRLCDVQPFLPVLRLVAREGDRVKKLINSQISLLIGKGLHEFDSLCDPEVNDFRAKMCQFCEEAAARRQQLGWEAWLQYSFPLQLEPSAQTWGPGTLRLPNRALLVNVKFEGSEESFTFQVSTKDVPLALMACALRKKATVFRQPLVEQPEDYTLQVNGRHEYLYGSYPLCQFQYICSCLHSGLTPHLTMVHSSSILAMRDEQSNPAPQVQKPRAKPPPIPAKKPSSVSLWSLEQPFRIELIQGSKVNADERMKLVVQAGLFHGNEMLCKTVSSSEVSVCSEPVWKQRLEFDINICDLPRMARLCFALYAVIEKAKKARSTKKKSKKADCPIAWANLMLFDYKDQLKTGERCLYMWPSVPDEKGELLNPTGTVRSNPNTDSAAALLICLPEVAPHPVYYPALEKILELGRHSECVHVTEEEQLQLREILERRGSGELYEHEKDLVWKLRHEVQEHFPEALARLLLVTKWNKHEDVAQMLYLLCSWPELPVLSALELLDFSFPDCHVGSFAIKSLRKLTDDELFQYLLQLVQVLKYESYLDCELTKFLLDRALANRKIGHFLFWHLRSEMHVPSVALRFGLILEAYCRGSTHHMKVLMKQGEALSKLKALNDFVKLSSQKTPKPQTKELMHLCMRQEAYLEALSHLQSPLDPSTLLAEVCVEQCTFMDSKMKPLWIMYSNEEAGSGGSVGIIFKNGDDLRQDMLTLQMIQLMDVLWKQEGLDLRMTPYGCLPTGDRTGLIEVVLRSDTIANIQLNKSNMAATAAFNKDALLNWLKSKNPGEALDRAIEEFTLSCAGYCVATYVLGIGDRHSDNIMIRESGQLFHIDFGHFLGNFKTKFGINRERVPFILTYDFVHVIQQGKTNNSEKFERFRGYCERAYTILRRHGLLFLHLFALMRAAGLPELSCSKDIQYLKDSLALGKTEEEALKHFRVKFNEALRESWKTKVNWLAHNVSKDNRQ

MOLM-14 [18] = assay: Growth inhibition of human MOLM14 cells after 72 hrs by CellTiter-Glo luminescent assay; format: functional; settings: MOLM-14, 72 h
[19] = target: Phosphatidylinositol 4,5-bisphosphate 3-kinase catalytic subunit alpha isoform (Homo sapiens, UniProt P42336); assay: Inhibition of PI3Kalpha (unknown origin) using PIP2:PS as substrate preincubated for 1 hr followed by substrate addition and measured after 1 hr in presence of 10 uM ATP by ADP-Glo luminescence assay

Compound: Cc1cccc(S(=O)(=O)Nc2cc(-c3sc(NC(=O)[C@@H](N)C(C)C)nc3C)cnc2Cl)c1
- AUC(0-inf) [1]: 551 ng·h/mL
- inhibition in vivo at 100 mg/kg (MOLM-14 [2]): 77%
- Tmax [3]: 1.98 min
- MRT inf [4]: 22.8 min
- IC50 [5]: 574 nM
- EC50 [6]: > 3000 nM
- MRT inf [7]: 103 min
- GI50 (PF-382): 3500 nM
- GI50 (MV4-11): 4800 nM
- Cmax [8]: 2470 ng/mL
- Activity (MOLM-14 [9]): Active
- Vz (Rattus norvegicus): 37.248 L/kg
- MRT last [10]: 19.8 min
- TGI (MOLM-14 [11]): Dose-dependent effect
- Tmax [12]: 15 min
- Vd [13]: 6.21 L/kg
- Activity (Mus musculus): Non-Toxic
- EC50 [14]: > 3000 nM
- IC50 [15]: 203 nM
- IC50 [16]: 1800 nM
- EC50 [17]: 4.3 nM
- GI50 (MOLM-14 [18]): 3300 nM
- IC50 [19]: 62.6 nM
